Patent US11168079B2, “Alkene compounds as farnesoid x receptor modulators” (BRISTOL-MYERS SQUIBB COMPANY, priority 2017, dated 2021)

What was measured:
Fgf15 = experiment: Acute mouse in vivo assay (PK/PD): Fgf15 gene expression in ileum; details: for Fgf15 (fold change@ 6 h relative to Vehicle): Mouse PD
Experimental: (§1) Acute Mouse In Vivo Assay:
(§2) Male, C57BL6/NTac mice, weighing 25-28 g, are purchased from Taconic Labs (Hudson, N.Y.) and maintained on Teklad Global 18% Protein Rodent Diet (Harlan Laboratories). After 1 week acclimation, mice are sorted into groups based upon body weight. Mice are administered a single oral dose of vehicle or experimental compound. Systemic compound exposure is evaluated in plasma derived from blood collected via the submandibular vein at 1 hour post-dose, and at study termination (6 h). At study termination, the animals are euthanized and rapidly dissected. The medial lobe of the liver is divided, with one half being homogenized and analyzed for compound exposure, and the other half saved in RNAlater (Thermo-Fisher Scientific). The ileum is also dissected and preserved in RNAlater. Tissue samples in RNAlater are homogenized with MP Biomedicals' beads. RNA is extracted using the MagMax-96 Total RNA Isolation kit (Thermo-Fisher Scientific) according to the manufacturer's protocol. RNA Concentration is determined with the Nano-Drop 8000 Spectrophotometer (Thermo Fisher). […] Mouse genes analyzed include Nr0b2 (which encodes the small heterodimer partner, SHP), Abcb11 (which encodes the bile salt excretion pump, BSEP), Cyp7a1, & Cyp8b1 in liver, and Fgf15, Fabp6 (which encodes ileal bile acid binding protein, I-BABP), Slc51a (which encodes organic solute transporter alpha subunit, OSTA), and Slc51 b (which encodes organic solute transporter beta subunit, OSTB) in the ileum. The statistical significant changes in FGF15 gene expression are expressed as fold increase and CYP7A1 expression as a percent reduction relative to vehicle control. […]
(§3) Male, C57BL6/NTac mice, weighing 25-28 g, are purchased from Taconic Labs (Hudson, N.Y.) and maintained on Teklad Global 18% Protein Rodent Diet (Harlan Laboratories). […] Systemic compound exposure is evaluated in plasma derived from blood collected via the submandibular vein at 1 hour post-dose, and at study termination (6 h). […] RNA Concentration is determined with the Nano-Drop 8000 Spectrophotometer (Thermo Fisher). […]

Cyp7a1 = experiment: Acute mouse in vivo assay (PK/PD): Cyp7a1 gene expression in liver; details: for Cyp7a1 (fold change@ 6 h relative to Vehicle): Mouse PD
Experimental: as §1, §2, §3

human FXR = biological target: T1, human FXR (Homo sapiens, UniProt Q96RI1); experiment: transient human FXR/Gal4-luciferase reporter assay (HLE GAL-FXR); details: FXR EC50 (nM), Gal4-hFXR fusion reporter, HEK293 cells; Table 1
T1 sequence (Q96RI1 262-486 limits assumed): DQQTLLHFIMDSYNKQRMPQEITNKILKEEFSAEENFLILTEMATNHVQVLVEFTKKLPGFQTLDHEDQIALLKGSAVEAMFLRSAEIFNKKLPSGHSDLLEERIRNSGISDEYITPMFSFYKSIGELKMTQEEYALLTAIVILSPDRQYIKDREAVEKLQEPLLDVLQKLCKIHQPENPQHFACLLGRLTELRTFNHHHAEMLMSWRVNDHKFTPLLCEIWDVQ

For `O=C(O)c1cc(F)c2nc(N3CCC(/C=C/c4c(-c5c(Cl)cccc5Cl)noc4C4CC4)CC3)sc2c1` [Example 14], the “Mouse in vivo FgF15” value (Fgf15; 30 mg/kg, @ 6 h, single oral dose, fold increase relative to vehicle control) was 10 x and the “Mouse in vivo Cyp7a1” value (Cyp7a1; 30 mg/kg, @ 6 h, single oral dose, percent reduction relative to vehicle control) was −96%.

With `O=C(O)c1ncc(N2CCC(/C=C/c3c(-c4c(Cl)cccc4Cl)noc3C3CC3)CC2)cn1` [Example 27] the EC50 (human FXR) was 2330 nM, the “Fgf15 (fold change@ 6 h relative to Vehicle)” value (Fgf15; dose 30 mg/kg) was 2.8 and the “Cyp7a1 (fold change@ 6 h relative to Vehicle)” value (Cyp7a1; dose 30 mg/kg) was 0.10.

With `O=C(O)c1cc2ccc(N3CCC(/C=C/c4c(-c5c(Cl)cncc5Cl)noc4C4CC4)CC3)cc2cn1` [Example 101] the EC50 (human FXR) was 47 nM, the “Fgf15 (fold change@ 6 h relative to Vehicle)” value (Fgf15; dose 3 mg/kg) was 21 and the “Cyp7a1 (fold change@ 6 h relative to Vehicle)” value (Cyp7a1; dose 3 mg/kg) was 0.06.

`COc1cc(C(=O)O)cc(-c2ccc(N3CC(/C=C/c4c(-c5ccccc5C(F)(F)F)noc4C4CC4)C3)nc2)c1` [Example 222] showed an EC50 (human FXR) of 34 nM.

`COc1cc(C(=O)O)cc(-c2nnc(N3CC4C(/C=C/c5c(-c6c(Cl)cncc6Cl)noc5C5CC5)C4C3)s2)c1` (stereo not shown) [Example 223] was tested, and the EC50 (human FXR) was 1400 nM.

With `O=C(O)c1cc(-c2ccc(N3CC(/C=C/c4c(-c5c(Cl)cncc5Cl)noc4C4CC4)C3)nc2)cc(C(F)(F)F)c1` [Example 224] the EC50 (human FXR) was 166 nM.

`O=C(O)c1cc(-c2ccc(N3CC(/C=C/c4c(-c5ccccc5C(F)(F)F)noc4C4CC4)C3)nc2)cc(C(F)(F)F)c1` [Example 225] was tested, and the EC50 (human FXR) was 6 nM.

`O=C(O)c1cc(F)cc(-c2ccc(N3CC(/C=C/c4c(-c5ccccc5C(F)(F)F)noc4C4CC4)C3)nc2)c1` [Example 226] showed an EC50 (human FXR) of 14 nM.
